Laboratory results: patent publication US20130204033A1, “ANTIPROLIFERATIVE COMPOUNDS, CONJUGATES THEREOF, METHODS THEREFOR, AND USES THEREOF” (Medarex, Inc., priority 2009, published 2013)
Like-named read-outs stand apart in the source and are kept apart here.

Key:
Format in all cases: cell-based, human
[1] = tested on: SW-480; test: ATP luminescence proliferation assay, SW-480
Procedure, shortened: (§1)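 Human tumor lines, cultured per supplier instructions, are plated at 1.0×10^3 cells/well and allowed 3 h before 1:3 serially diluted test agents are added. Viability is read as ATP luminescence after 48, 72 or 96 h.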

[2] = tested on: HL-60; test: ATP luminescence proliferation assay, HL-60
Procedure, shortened: (§2)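 Cells seeded at 1.0×10^3 cells/well for 3 h, then exposed to 1:3 serial dilutions of free compounds or conjugates for 48, 72 or 96 h, as noted. ATP measured by luminescent cell viability kit; EC50 taken as concentration reducing proliferation by 50%.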

[3] = tested on: HPAC; test: ATP luminescence proliferation assay, HPAC
Method: This example generally describes the procedures used to assay the antiproliferative activity of compounds of this invention or their conjugates. Human tumor cell lines were obtained from the American Type Culture Collection (ATCC), P.O. Box 1549, Manassas, Va. 20108, USA, and cultured according to instruction from the ATCC. Cells were seeded at 1.0×10^3 or 1.0×10^4 cells/well in 96-well plates for 3 h for ATP assays or ^3H thymidine assays, respectively. 1:3 serial dilutions of free (unconjugated) compounds or their conjugates were added to the wells. Plates were allowed to incubate for 24 to 72 h. The ^3H thymidine plates were pulsed with 1.0 μCi of ^3H-thymidine per well for the last 24 hours of the total incubation period, harvested, and read on a Top Count Scintillation Counter (Packard Instruments, Meriden, Conn.). ATP levels in the ATP plates were measured using the […]-GLO® Luminescent Cell Viability kit following the manufacturer's manual and read on a GLOMAX® 20/20 luminometer (both from Promega, Madison, Wis., USA). The EC50 values—the concentration at which an agent inhibits or reduces cell proliferation by 50% —were determined using PRISM™ software, version 4.0 (GraphPad Software, La Jolla, Calif., USA).
Using the ^3H thymidine or the ATP luminescence assay, or both, the activities of compounds of this invention were assayed against the following cancer cell lines: HCT-15 (colorectal cancer, multi-drug resistant (MDR)); Hep3B (liver cancer); LNCaP (prostate cancer, androgen receptor positive (AR^+)); MDA-MB-231 (breast cancer, estrogen receptor, progesterone receptor, and Her2 negative (triple negative)); A2058 (melanoma); U-87 MG (glioblastoma); NCI-H460 (NSCLC); A549 (NSCLC); HPAC (pancreatic cancer, primary); PC3 (prostate cancer, AR); BT474 (breast cancer, Her2 highly positive (Her2hi)); SKOV3 (ovarian cancer, Her2hi); 786-O (renal cancer); UO-31 (renal cancer, MDR); NCI-H740 (SCLC); DMS53 (SCLC); SK-BR3 (breast cancer, Her2hi); ZR-75 (breast cancer, estrogen receptor positive); OVCAR3 (ovarian cancer); HL-60 (APL); OVCAR8/Adr (ovarian cancer, MDR); CEM-Cl (ALL); Nomo-1 (AML); RPMI-8226 (MM)); Raji (lymphoma); SW-480 (colorectal cancer, metastatic); SW-620 (colorectal cancer); and H226 (lung cancer). (Not all compounds were assayed against all cell lines.)
Table 3 provides the data for the ATP luminescence proliferation assays, with an incubation period of 48, 72, or 96 h, as noted.

[4] = tested on: HPAC; test: 3H thymidine proliferation assay, HPAC
Procedure, shortened: (§3)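 Proliferation is read as incorporated ^3H-thymidine (1.0 μCi/well, final 24 h) after 72 h with 1:3 dilution series of free compound or conjugate; 1.0×10^4 cells/well. The EC50 is where proliferation falls by 50%.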

[5] = tested on: 786-O; test: 3H thymidine proliferation assay, 786-O
Procedure, shortened: as §3

[6] = tested on: SW-620; test: ATP luminescence proliferation assay, SW-620
Procedure, shortened: as §1

[7] = tested on: U-87 MG; test: 3H thymidine proliferation assay, U-87 MG
Procedure, shortened: as §3

[8] = tested on: MDA-MB-231; test: 3H thymidine proliferation assay, MDA-MB-231
Procedure, shortened: as §3

[9] = tested on: NCI-H460; test: ATP luminescence proliferation assay, NCI-H460
Procedure, shortened: as §1

[10] = tested on: HCT-15; test: ATP luminescence proliferation assay, HCT-15
Procedure, shortened: as §1

[11] = tested on: NCI-H460; test: 3H thymidine proliferation assay, NCI-H460
Procedure, shortened: as §3

[12] = tested on: PC3; test: 3H thymidine proliferation assay, PC3
Procedure, shortened: as §3

[13] = tested on: ZR-75; test: ATP luminescence proliferation assay, ZR-75
Procedure, shortened: as §1

[14] = tested on: RPMI-8226; test: ATP luminescence proliferation assay, RPMI-8226
Procedure, shortened: as §1

[15] = tested on: SK-BR3; test: 3H thymidine proliferation assay, SK-BR3; conditions: 3H thymidine method, 72 h incubation
Procedure, shortened: as §3

[16] = tested on: 786-O; test: ATP luminescence proliferation assay, 786-O
Procedure, shortened: as §2

[17] = tested on: CEM-Cl; test: ATP luminescence proliferation assay, CEM-C1
Procedure, shortened: as §1

[18] = tested on: SKOV3; test: ATP luminescence proliferation assay, SKOV3
Procedure, shortened: as §1

[19] = ATP luminescence, SW480, 96 h incubation, read-out: EC50 SW480 (96 h)
[20] = ATP luminescence, HL-60, 72 h incubation, read-out: EC50 HL-60 (72 h)
[21] = ATP luminescence, 72 h incubation, read-out: EC50 HPAC (72 h)
[22] = 3H thymidine method, 72 h incubation, read-out: EC50, HPAC
[23] = 3H thymidine method, 72 h incubation, read-out: EC50, 786-O
[24] = ATP luminescence, SW-620, 96 h incubation, read-out: EC50 SW-620 (96 h)
[25] = 3H thymidine method, 72 h incubation, read-out: EC50, U-87 MG
[26] = 3H thymidine method, 72 h incubation, read-out: EC50, MDA-MB-231
[27] = ATP luminescence, NCI-H460, 72 h incubation, read-out: EC50 NCI-H460 (72 h)
[28] = 3H thymidine method, 72 h incubation, read-out: EC50, NCI-H460
[29] = 3H thymidine method, 72 h incubation, read-out: EC50, PC3
[30] = ATP luminescence, ZR-75, 48 h incubation, read-out: EC50 ZR-75 (48 h)
[31] = ATP luminescence, 786-O, 72 h incubation, read-out: EC50 786-O (72 h)
[32] = ATP luminescence, SKOV3, 72 h incubation, read-out: EC50 SKOV3 (72 h)

Compound	EC50 [1, 19]	EC50 [2, 20]	EC50 [3, 21]	EC50 [4, 22]	EC50 [5, 23]	EC50 [6, 24]	EC50 [7, 25]	EC50 [8, 26]	EC50 [9, 27]	EC50 [11, 28]	EC50 [12, 29]	EC50 [13, 30]	EC50 [15]	EC50 [16, 31]	EC50 [18, 32]	further results
CC[C@H](C)[C@H](NC(=O)[C@H]1CCCCN1C)C(=O)N(COC(=O)CC(C)C)[C@H](C[C@@H](O)c1nc(C(=O)N[C@@H](Cc2ccccc2)C(=O)OC)cs1)C(C)C [Compound 28]	36 nM	2.9 nM	5.9 nM	34 nM	61 nM	21 nM	> 100 nM	> 100 nM	35 nM	> 100 nM	> 100 nM	16 nM	> 100 nM	29 nM	11 nM	EC50 ([10]; ATP luminescence, HCT-15, 72 h incubation, read-out: EC50 HCT-15 (72 h)): 132 nM; EC50 ([14]; ATP luminescence, RPMI-8226, 72 h incubation, read-out: EC50 RPMI-8226 (72 h)): 10 nM; EC50 ([17]; ATP luminescence, CEM-C1, 72 h incubation, read-out: EC50 CEM-C1 (72 h)): 11 nM
CC[C@H](C)[C@H](NC(=O)[C@H]1CCCCN1C)C(=O)N(COC)[C@H](C[C@@H](OC)c1nc(C(=O)N[C@@H](Cc2ccccc2)C(=O)OC)cs1)C(C)C [Compound 29c]	41 nM	8.6 nM	4.6 nM	32 nM	3.9 nM	8.4 nM	0.51 nM	4.8 nM	6 nM	15 nM	11 nM	136 nM	72 nM	34 nM	17 nM	EC50 ([10]; ATP luminescence, HCT-15, 48 h incubation, read-out: EC50 HCT-15 (48 h)): 200 nM; EC50 ([14]; ATP luminescence, RPMI-8226, 48 h incubation, read-out: EC50 RPMI-8226 (48 h)): 70 nM; EC50 ([17]; ATP luminescence, CEM-C1, 48 h incubation, read-out: EC50 CEM-C1 (48 h)): 20 nM
CC[C@H](C)[C@H](NC(=O)[C@H]1CCCCN1C)C(=O)N(C)[C@H](C[C@@H](OC)c1nc(C(=O)N[C@H](CCC(=O)OC)Cc2ccccc2)cs1)C(C)C [Compound 26]	–	–	–	–	–	–	–	–	–	–	–	–	–	–	–	EC50 ([1]; Homo sapiens, SW480, 96 h, read-out: EC50 SW480 (96 h), ATP luminescence, SW480, 96 h incubation): 67 nM; EC50 ([2]; Homo sapiens, HL-60, 72 h, read-out: EC50 HL-60 (72 h), ATP luminescence, HL-60, 72 h incubation): 27 nM; EC50 ([3]; Homo sapiens, 72 h, read-out: EC50 HPAC (72 h), ATP luminescence, HPAC, 72 h incubation): 279 nM; EC50 ([4]; Homo sapiens, HPAC, read-out: EC50, HPAC, 3H thymidine method, 72 h incubation): 11 nM; EC50 ([5]; Homo sapiens, 786-0, read-out: EC50, 786-O, 3H thymidine method, 72 h incubation): 26 nM; EC50 ([6]; Homo sapiens, SW-620, 96 h, read-out: EC50 SW-620 (96 h), ATP luminescence, SW-620, 96 h incubation): 48 nM; EC50 ([7]; Homo sapiens, U-87 MG, read-out: EC50, U-87 MG, 3H thymidine method, 72 h incubation): 5.2 nM; EC50 ([8]; Homo sapiens, MDA-MB-231, read-out: EC50, MDA-MB-231, 3H thymidine method, 72 h incubation): 15 nM; EC50 ([9]; Homo sapiens, NCI-H460, 72 h, read-out: EC50 NCI-H460 (72 h), ATP luminescence, NCI-H460, 72 h incubation): 90 nM; EC50 ([10]; Homo sapiens, HCT-15, 48 h, read-out: EC50 HCT-15 (48 h), ATP luminescence, HCT-15, 48 h incubation): 113 nM; EC50 ([11]; Homo sapiens, NCI-H460, read-out: EC50, NCI-H460, 3H thymidine method, 72 h incubation): 18 nM; EC50 ([12]; Homo sapiens, PC-3, read-out: EC50, PC3, 3H thymidine method, 72 h incubation): 16 nM; EC50 ([13]; Homo sapiens, ZR75, 48 h, read-out: EC50 ZR-75 (48 h), ATP luminescence, ZR-75, 48 h incubation): 208 nM; EC50 ([14]; Homo sapiens, RPMI-8226, 48 h, read-out: EC50 RPMI-8226 (48 h), ATP luminescence, RPMI-8226, 48 h incubation): 45 nM; EC50 ([15]; Homo sapiens, SK-BR-3): 32 nM; EC50 ([16]; Homo sapiens, 786-0, 72 h, read-out: EC50 786-O (72 h), ATP luminescence, 786-O, 72 h incubation): 126 nM; EC50 ([17]; Homo sapiens, CEM/C1, 48 h, read-out: EC50 CEM-C1 (48 h), ATP luminescence, CEM-C1, 48 h incubation): 61 nM; EC50 ([18]; Homo sapiens, SK-OV-3, 72 h, read-out: EC50 SKOV3 (72 h), ATP luminescence, SKOV3, 72 h incubation): 38 nM
